Patent US20230201301A1 (priority 2020, published 2023)

How the values were obtained:
sTREM-1 = test system: sTREM-1; set-up: species or system transgenic mice B6.Cg-Tg(K18-ACE2)2Prlmn/J; settings: mouse, in vivo, ip
SARS-CoV-2 = type: in vivo, transgenic mice B6.Cg-Tg(K18-ACE2)2Prlmn/J
cytokines/chemokines = test system: cytokines/chemokines; set-up: species or system transgenic mice B6.Cg-Tg(K18-ACE2)2Prlmn/J; settings: mouse, in vivo

Sequence: LQEEDTGEYGCV (TLT-1 peptide) [LR12]
- plasma sTREM-1 level (median) (sTREM-1): 132.3 pg/mL
- bodyweight loss day 0 to day 10 (SARS-CoV-2; 2 mg i.p. at t0+1 h, 24, 48, 72, 96 h, vs vehicle, LOCF, FIG. 2-3): significant reduced bodyweight loss
- mortality (survival D0 to D10) (SARS-CoV-2; 2 mg i.p. at t0+1 h, 24, 48, 72, 96 h, vs vehicle, N=16 per treatment group, FIG. 1): significant reduction in mortality
- mean respiratory score (SARS-CoV-2; scale 0 (normal respiration) to 5 (dead mouse), up to day 10, 2 mg i.p., vehicle group 5, FIG. 5): 3
- mean clinical score (SARS-CoV-2; scale 1 (healthy mouse) to 5 (dead mouse), up to day 10, 2 mg i.p., vehicle group 5, FIG. 4): 3.5
- IP-10 plasma concentration vs vehicle (cytokines/chemokines): decrease
- IFNα plasma concentration vs vehicle (cytokines/chemokines; ip): decrease
- IL-6 plasma concentration vs vehicle (cytokines/chemokines; ip): decrease
- IL-10 plasma concentration vs vehicle (cytokines/chemokines; ip): increase
